Laboratory results from patent US9969776B2, “Drug conjugates for delivering compounds to senescent cells” (Unity Biotechnology, Inc., priority 2007, dated 2018).
“Also recorded” adds a separate entry of the source. Where two headings read alike, the source gives them in different places. Where no end group is shown, it is not given here.

What was measured:
[1] = 1×iv, mice; cited from earlier work
[2] = cited from earlier work
senescent fibroblasts [3] = assay: Cell Proliferation Assay WST-1; type: cell-based
Experimental: (§1) Cell proliferation was assayed using the Cell Proliferation Reagent WST-1 (Roche, Mannheim, Germany) by following the manufacturer's instructions.

[4] = system: immortalized prostate epithelial cells; assay: Cell Proliferation Assay WST-1; type: cell-based
Experimental: as §1

[5] = system: non-senescent fibroblasts; assay: Cell Proliferation Assay WST-1; type: cell-based
Experimental: as §1

[6] = system: prostate epithelial cells (RWPE-1); assay: Cytotoxicity, LDH release (CytoTox-ONE); type: cell-based; conditions: immortalized prostate epithelial cells RWPE-1, 2 hours at 37° C.
senescent fibroblasts [7] = assay: Cytotoxicity, LDH release (CytoTox-ONE); type: cell-based; conditions: 2 hours at 37° C.
[8] = system: non-senescent fibroblasts; assay: Cytotoxicity, LDH release (CytoTox-ONE); type: cell-based; conditions: 2 hours at 37° C.
senescent cells = assay: Cell binding assay with radio-labeled peptide
Experimental: (§2) A senescent cell binding agent (SEQ ID NO:1) was conjugated at its C terminus to the linker sequence GGGC (SEQ ID NO:9) by synthesizing both as a single construct (i.e., SenC; SEQ ID NO:5). The purpose of attaching GGGC was that it can be used to chelate reduced 99m-Tc for radio-labeling. A 2 μL aliquot of conjugated senescent cell binding agent (3 M) was mixed with 40 μL of 0.25 M ammonium acetate, 15 μL of tartrate buffer pH 8.7, 4 μL of stannous chloride in 100 mM of sodium tartrate, and 30 μL of 99m-Tc pertechnetate. The mixture was heated for 25 minutes at 95° C. Quality control was performed with Sep-Pak and was always above 90% purity. A small aliquot was also injected on a Waters 600 HPLC to check the radiological profile. Fractions were collected and read on a gamma counter (Perkin-Elmer Wallac Wizard 1470).
(§3) Binding of radio-labeled SenC (SEQ ID NO:5) to senescent and non-senescent cells was tested by competition with unlabeled SenC. Peptide solutions were prepared to contain 0 or 20 μM of unlabeled SenC, 15 nM radio-labeled SenC, and 0.2% BSA. Chemically-induced senescent fibroblasts, their non-senescent counterparts, and prostate epithelial cells were prepared as above, harvested, and centrifuged. The cell pellets were resuspended in fresh media without FBS, and cells were counted. Peptide solution containing 0 or 20 μM unlabeled SenC and constant concentrations of SenC and 10^5 senescent cells were combined in a final volume of 200 μL of PBS in Eppendorf tubes and incubated for 4 hours. Cells were pelleted by centrifuging at 2500 rpm for 2 minutes and washed twice with PBS and 0.2% BSA. Pellets were suspended in 5 μL PBS and transferred to 12×75 mm tubes for counting radioactivity using a gamma counter (Perkin-Elmer Wallac Wizard 1470).

normal fibroblasts = assay: Cell binding assay with radio-labeled peptide
Experimental: as §2, §3

prostate epithelium = assay: Cell binding assay with radio-labeled peptide
Experimental: as §2, §3

[9] = absence of unlabeled peptide, 15 nM radio-labeled SenC, 4 hours
[10] = presence of 20 μM unlabeled SenC

CC[C@@]1(O)C(=O)OCc2c1cc1n(c2=O)Cc2cc3c(CN(C)C)c(O)ccc3nc2-1 [topotecan]
LD1Omice [1]: 75 mg/m^2

CC[C@]1(O)C[C@@H]2CN(CCc3c([nH]c4ccccc34)[C@@](C(=O)OC)(c3cc4c(cc3OC)N(C)[C@H]3[C@@](O)(C(=O)OC)[C@H](OC(C)=O)[C@]5(CC)C=CCN6CC[C@]43[C@@H]65)C2)C1 [vinblastine]
MTD ([2]; escalating): 3.3-11.1 mg/m^2 | MTD ([2]; rarely to): 18.5 mg/m^2

GVYHFAPLTPTPGGGSKFAKFAKKFAKFAK (GVYHFAPLTPTPGGSKFAKFAKKFAKFAK) [SenL]
cell proliferation (WST-1, metabolic activity) (senescent fibroblasts [3]): no change in cell proliferation; also recorded: no significant effect on metabolic activity | cell proliferation (WST-1, metabolic activity) [4]: no change in cell proliferation; also recorded: no significant effect on metabolic activity | cell proliferation (WST-1, metabolic activity) [5]: no change in cell proliferation; also recorded: no significant effect on metabolic activity | cell death (percentage of cells killed) [6]: no cell death at all; also recorded: No cell death was observed | cell death (percentage of cells killed) (senescent fibroblasts [7]): dose-dependent cell death at a significantly higher rate than either non-senescent fibroblasts or prostate epithelial cells | cell death (percentage of cells killed) [8]: some cytotoxicity is observed

radio-labeled SenC: SenC (SEQ ID NO:5) radio-labeled with 99m-Tc chelated by GGGC (GVYHFAPLTPTPGGGC; also: 99mTc chelated by GGGC)
specificity of binding (absence vs. presence of unlabeled SenC) (senescent cells): specific binding | bound peptide, average (senescent cells; [9]): 0.32 % of added dose | bound peptide, average (senescent cells; [10]): 0.25 % of added dose | specificity of binding (absence vs. presence of unlabeled SenC) (normal fibroblasts): nonspecific | bound peptide, average (normal fibroblasts; [9]): 0.08 % of added dose | bound peptide, average (normal fibroblasts; [10]): 0.09 % of added dose | specificity of binding (absence vs. presence of unlabeled SenC) (prostate epithelium): nonspecific | bound peptide, average (prostate epithelium; [9]): 0.06 % of added dose | bound peptide, average (prostate epithelium; [10]): 0.06 % of added dose
